“And” between values parts separate entries of the source, which are not always exact repeats. Identical values can stand only once. Inconclusive results and toxic doses are left out.
Tested on: P388 leukemia ip, CD2F1 mice, survival T/C
Assay: NCI In Vivo Anticancer Drug Screen. Data for tumor model P388 Leukemia (intraperitoneal) in CD2F1 (CDF1) mice
Settings: endpoint: median survival time, higher = longer survival
In short: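 Mice carrying the transplanted tumor received test compound or vehicle. Survival was recorded in each group, and the value is the treated-group measurement divided by that of the vehicle-treated control group.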

[1] = dose: 25.0 mg/kg/injection, schedule: Q01DX009 (ip), vehicle: saline with Tween-80
[2] = dose: 50.0 mg/kg/injection, schedule: Q01DX009 (ip), vehicle: saline with Tween-80
[3] = dose: 100.0 mg/kg/injection, schedule: Q01DX009 (ip), vehicle: saline with Tween-80
[4] = dose: 200.0 mg/kg/injection, schedule: Q01DX009 (ip), vehicle: saline with Tween-80
[5] = dose: 50.0 mg/kg/injection, schedule: Q01DX005 (ip), vehicle: saline with Tween-80
[6] = dose: 200.0 mg/kg/injection, schedule: Q01DX005 (ip), vehicle: saline with Tween-80
[7] = dose: 50.0 mg/kg/injection, schedule: Q01DX005 (ip), vehicle: saline
[8] = dose: 100.0 mg/kg/injection, schedule: Q01DX005 (ip), vehicle: saline
[9] = dose: 100.0 mg/kg/injection, schedule: Q01DX001 (ip), vehicle: saline with Tween-80
[10] = dose: 400.0 mg/kg/injection, schedule: Q01DX001 (ip), vehicle: saline with Tween-80
[11] = dose: 100.0 mg/kg/injection, schedule: Q04DX003 (ip), vehicle: saline with Tween-80
[12] = dose: 200.0 mg/kg/injection, schedule: Q04DX003 (ip), vehicle: saline with Tween-80

COc1cc(Cl)nc(OC)n1
T/C [1]: 108 % of control | T/C [2]: 89 % of control | T/C [3]: 103 % of control | T/C [4]: 103 % of control

NC(=S)N/N=C\C=N\Nc1ccccc1
T/C (dose: 100.0 mg/kg/injection, schedule: Q04DX003 (ip), vehicle: Klucel (hydroxypropylcellulose) (HPC)): 100 % of control | T/C (dose: 200.0 mg/kg/injection, schedule: Q04DX003 (ip), vehicle: Klucel (hydroxypropylcellulose) (HPC)): 100 % of control

COc1cc2c(cc1OC)C(C)N(C)c1c-2c(OC(C)=O)cc2cc(OC)c(OC)cc12 (configuration not stated)
T/C [5]: 97 % of control | T/C (dose: 100.0 mg/kg/injection, schedule: Q01DX005 (ip), vehicle: saline with Tween-80): 100 % of control | T/C [6]: 92 % of control

COc1cccc2c1C(=O)c1c(cc3c(c1O)[C@@H](OC1CC(NC(=O)c4ccc(N=[N+]=[N-])cc4)C(O)C(C)O1)C[C@](O)(C(C)=O)C3)C2=O (some centres not stated)
T/C (dose: 6.25 mg/kg/injection, schedule: Q04DX003 (ip), vehicle: olive oil, sesame oil, peanut oil): 100 % of control | T/C (dose: 12.5 mg/kg/injection, schedule: Q04DX003 (ip), vehicle: olive oil, sesame oil, peanut oil): 97 % of control | T/C (dose: 25.0 mg/kg/injection, schedule: Q04DX003 (ip), vehicle: olive oil, sesame oil, peanut oil): 100 % of control | T/C (dose: 50.0 mg/kg/injection, schedule: Q04DX003 (ip), vehicle: olive oil, sesame oil, peanut oil): 112 % of control

CC[C@@]1(O)C[C@H](OC2CC(N(C)C)C(O)C(C)O2)c2c(O)c3c(c(O)c2[C@H]1OC1CC(N(C)C)C(O)C(C)O1)C(=O)c1cccc(O)c1C3=O (some centres not stated)
T/C (dose: 0.03 mg/kg/injection, schedule: Q01DX009 (ip), vehicle: other): 118 % of control | T/C (dose: 0.03 mg/kg/injection, schedule: Q04DX003 (ip), vehicle: other): 112 % of control | T/C (dose: 0.06 mg/kg/injection, schedule: Q04DX003 (ip), vehicle: other): 114 % of control | T/C (dose: 0.13 mg/kg/injection, schedule: Q04DX003 (ip), vehicle: other): 124 % of control | T/C (dose: 0.25 mg/kg/injection, schedule: Q04DX003 (ip), vehicle: other): 121 % of control | T/C (dose: 0.5 mg/kg/injection, schedule: Q04DX003 (ip), vehicle: other): 93 % of control

CN(C)C1C(=O)C(C(=O)NCNCCC(=O)O)=C(O)C2(O)C(=O)C3=C(O)c4c(O)cccc4C(C)(O)C3CC12 (configuration not stated)
T/C [7]: 101 % of control | T/C [8]: 94 % of control | T/C (dose: 200.0 mg/kg/injection, schedule: Q01DX005 (ip), vehicle: saline): 101 % of control

COC(C(=O)C(O)C(C)O)C1Cc2cc3cc(OC4CC(OC(C)=O)C(OC5CC(O)C(OC)C(C)O5)C(C)O4)cc(O)c3c(O)c2C(=O)C1OC1CC(OC2CC(OC3CC(C)(O)C(OC(=O)C(C)C)C(C)O3)C(O)C(C)O2)C(O)C(C)O1 (configuration not stated)
T/C (dose: 0.02 mg/kg/injection, schedule: Q01DX010 (ip), vehicle: saline): 100 % of control | T/C (dose: 0.05 mg/kg/injection, schedule: Q01DX010 (ip), vehicle: saline): 100 % of control | T/C (dose: 0.2 mg/kg/injection, schedule: Q01DX009 (ip), vehicle: saline): 183 % of control | T/C (dose: 0.4 mg/kg/injection, schedule: Q01DX009 (ip), vehicle: saline): 122 % of control | T/C (dose: 3.2 mg/kg/injection, schedule: Q01DX010 (ip), vehicle: saline): 90 % of control

S=C(NNc1nnc(-c2ccccc2)c(-c2ccccc2)n1)Nc1ccc(Br)cc1
T/C (dose: 12.5 mg/kg/injection, schedule: Q01DX005 (ip), vehicle: saline with Tween-80): 97 % of control | T/C (dose: 25.0 mg/kg/injection, schedule: Q01DX005 (ip), vehicle: saline with Tween-80): 90 % of control | T/C [5]: 97 % of control | T/C [6]: 93 % of control

O=C(O)O
T/C (dose: 25.0 mg/kg/injection, schedule: Q01DX009 (ip), vehicle: saline): 102 % of control | T/C (dose: 50.0 mg/kg/injection, schedule: Q01DX009 (ip), vehicle: saline): 94 % of control and 93 % of control | T/C [3]: 100 % of control | T/C (dose: 100.0 mg/kg/injection, schedule: Q01DX009 (ip), vehicle: saline): 99 % of control and 95 % of control | T/C [4]: 95 % of control | T/C (dose: 200.0 mg/kg/injection, schedule: Q01DX009 (ip), vehicle: saline): 98 % of control and 102 % of control | T/C (dose: 200.0 mg/kg/injection, schedule: Q04DX003 (ip), vehicle: saline sonified): 100 % of control | T/C (dose: 0.25 % in 0.5 ml injection vol, schedule: Q01DX009 (ip), vehicle: water): 98 % of control | T/C (dose: 400.0 mg/kg/injection, schedule: Q04DX003 (ip), vehicle: saline sonified): 100 % of control | T/C (dose: 0.5 % in 0.5 ml injection vol, schedule: Q01DX009 (ip), vehicle: water): 100 % of control | T/C (dose: 1.0 % in 0.5 ml injection vol, schedule: Q01DX009 (ip), vehicle: water): 102 % of control | T/C (dose: 4.0 % in 0.5 ml injection vol, schedule: Q01DX009 (ip), vehicle: water): 100 % of control and 102 % of control | T/C (dose: 8.0 % in 0.5 ml injection vol, schedule: Q01DX009 (ip), vehicle: water): 99 % of control and 95 % of control

COC(=O)/C(C#N)=C/Sc1ccccc1
T/C [9]: 101 % of control | T/C (dose: 200.0 mg/kg/injection, schedule: Q01DX001 (ip), vehicle: saline with Tween-80): 98 % of control | T/C [10]: 97 % of control

C[CH2][Sn]([CH2]C(=O)OC)([CH2]C(=O)OC)[c]1ccccc1
T/C (dose: 25.0 mg/kg/injection, schedule: Q01DX005 (ip), vehicle: saline): 157 % of control | T/C [7]: 181 % of control | T/C [8]: 168 % of control

COc1ccc2nccc(NCCCN3CCN(CCCNc4ccnc5ccc(OC)cc45)CC3)c2c1
T/C (dose: 3.75 mg/kg/injection, schedule: Q01DX005 (ip), vehicle: water): 104 % of control | T/C (dose: 7.5 mg/kg/injection, schedule: Q01DX005 (ip), vehicle: water): 107 % of control | T/C (dose: 15.0 mg/kg/injection, schedule: Q01DX005 (ip), vehicle: water): 99 % of control

NC(=S)c1ccc(N=Cc2cccc([N+](=O)[O-])c2)cc1
T/C (dose: 100.0 mg/kg/injection, schedule: Q01DX001 (ip), vehicle: Klucel (hydroxypropylcellulose) (HPC)): 98 % of control | T/C (dose: 200.0 mg/kg/injection, schedule: Q01DX001 (ip), vehicle: Klucel (hydroxypropylcellulose) (HPC)): 124 % of control | T/C (dose: 400.0 mg/kg/injection, schedule: Q01DX001 (ip), vehicle: Klucel (hydroxypropylcellulose) (HPC)): 104 % of control

O=C(N/N=C/c1ccc(F)cc1)c1ccncc1
T/C [2]: 91 % of control | T/C [3]: 92 % of control | T/C [4]: 90 % of control

Cc1cc(O)c(O)c(Oc2cc(C)cc(O)c2O)c1
T/C (dose: 75.0 micrograms/kg/injection, schedule: Q01DX009 (ip), vehicle: saline): 100 % of control | T/C (dose: 150.0 micrograms/kg/injection, schedule: Q01DX009 (ip), vehicle: saline): 109 % of control | T/C (dose: 300.0 micrograms/kg/injection, schedule: Q01DX009 (ip), vehicle: saline): 102 % of control

Cc1ccc2nc3cc(N)ccc3c(-c3ccc(N)cc3)c2c1
T/C (dose: 50.0 mg/kg/injection, schedule: Q01DX005 (ip), vehicle: Klucel (hydroxypropylcellulose) (HPC)): 97 % of control | T/C (dose: 100.0 mg/kg/injection, schedule: Q01DX005 (ip), vehicle: Klucel (hydroxypropylcellulose) (HPC)): 102 % of control | T/C (dose: 200.0 mg/kg/injection, schedule: Q01DX005 (ip), vehicle: Klucel (hydroxypropylcellulose) (HPC)): 97 % of control

CC(C)(C)N1OC1c1ccccc1 (configuration not stated)
T/C (dose: 25.0 mg/kg/injection, schedule: Q04DX003 (ip), vehicle: saline with Tween-80): 108 % of control | T/C (dose: 50.0 mg/kg/injection, schedule: Q04DX003 (ip), vehicle: saline with Tween-80): 105 % of control | T/C [11]: 108 % of control | T/C [12]: 108 % of control

Cc1ccc(C(=O)N=[N+]=[N-])o1
T/C (dose: 12.5 mg/kg/injection, schedule: Q01DX009 (ip), vehicle: saline with Tween-80): 98 % of control | T/C [1]: 100 % of control | T/C [2]: 100 % of control

CCCCCCCCCCCCCCCCCC[N+]1(CC)CCSCC1
T/C (dose: 25.0 mg/kg/injection, schedule: Q01DX001 (ip), vehicle: saline with Tween-80): 97 % of control | T/C (dose: 50.0 mg/kg/injection, schedule: Q01DX001 (ip), vehicle: saline with Tween-80): 98 % of control | T/C [9]: 94 % of control | T/C [10]: 86 % of control

C=CCCCCCCCCC(=O)NN1CCOCC1
T/C [11]: 95 % of control | T/C [12]: 100 % of control | T/C (dose: 400.0 mg/kg/injection, schedule: Q04DX003 (ip), vehicle: saline with Tween-80): 86 % of control

CC(=O)NCC#N
T/C (dose: 100.0 mg/kg/injection, schedule: Q01DX001 (ip), vehicle: saline): 107 % of control | T/C (dose: 200.0 mg/kg/injection, schedule: Q01DX001 (ip), vehicle: saline): 102 % of control | T/C (dose: 400.0 mg/kg/injection, schedule: Q01DX001 (ip), vehicle: saline): 121 % of control

— PubChem BioAssay AID330 (DTP/NCI, 2004)
